Tested on: bacteria (e.g. S. aureus, B. subtilis, Pseud. aeuruginosa)
Assay: Antimicrobial activity of glyceryl monolaurate
Format: cell-based
Text: The compositions have an inbuilt antimicrobial system which gives less need for preservatives. The antimicrobial activity of the composition is partly due to the presence of hydrogen peroxide and partly due to the presence of glyceryl monolaurate. […] In combination with hydrogen peroxide, a synergistic effect is achieved and antimicrobial activity according to A criteria is obtained against also yeast (e.g. Candida albicans) and molds (Aspergillus niger). This was shown by performing a preservative effectiveness test according to the PhEur method. Acceptance criteria A is the most strict criteria according to PhEur. Criteria B is less strict.

CCCCCCCCCCCC(=O)OCC(O)CO (stereo not shown) [Glyceryl monolaurate]
antimicrobial activity against bacteria: antimicrobially active against bacteria

— US20160081968A1, “COMPOSITION FOR USE IN REDUCING SCAB FORMATION AND PROMOTING HEALING” (BIOGLAN AB, priority 2013, published 2016)
